Source: patent US8901309B2, “Fused triazoles for the treatment or prophylaxis of mild cognitive impairment” (Takeda Pharmaceutical Company Limited, priority 2010, dated 2014)

Test system: Aβ42 in hippocampi of C57BL/6J mice
Assay: Hippocampal soluble Aβ42 ELISA in mice after oral administration
Format: in vivo, mouse
Conditions: 10 mg/kg orally, hippocampi isolated 3 hours after administration, soluble Aβ42 by ELISA, 10 mg/kg
Protocol: Measurement of Amyloid β Production Inhibition Rate Using Primary Nerve Cell
C57BL/6J mice (7-10 weeks old) were purchased from CLEA Japan Inc. Mice were housed in groups and kept on a 12h-light; 12h-dark schedule. All mice were given ad libitum access to food and water.
Each test compound was reconstituted in solubilization buffer ([DMSO (Wako)]: [10% Cremophor (Nakarai)+30% polyethylene glycol 400 (Wako)+60% 2 mol/L Citrate buffer (Wako)]=1:9) and orally administrated at 10 mg/kg.
Hippocampi was isolated from animals, 3 hours after test compounds were orally administrated. Hippocampi were homogenized in ice-cold Tris-extraction buffer (50 mmol/L Tris-HCl, pH 7.2, 200 mmol/L sodium chloride, 2% protease-free bovine serum albumin, and 0.01% sodium merthiolate) containing protease inhibitor cocktails (Roche, Switzerland). After centrifugation at 15,000 rpm for 15 minutes, the supernatants were subjected to two-site sandwich ELISA to measure amount of soluble Aβ. Aβ42 was quantitated by two-site sandwich ELISA using BNT77, which recognizes Aβ11-28, as a capture antibody and BC05-HRP as a detector antibody, respectively.

COc1cc(-c2nnc3n2CCCC3(Oc2ccc(C(F)(F)F)cc2)C(C)(C)O)ccc1-c1cnc(C)o1 (stereo not shown) [Example 104, 2-{3-[3-methoxy-4-(2-methyl-1,3-oxazol-5-yl)phenyl]-8-[4-(trifluoromethyl)phenoxy]-5,6,7,8-tetrahydro[1,2,4]triazolo[4,3-a]pyridin-8-yl}propan-2-ol]
Aβ42 production inhibitory activity (% inhibition): 36 % inhibition
